From patent US20240300927A1, “AMIDES AS CBL-B INHIBITORS” (Genentech, Inc., priority 2021, published 2024)

Legend:
c-Cbl = c-Cbl (Homo sapiens (Human), UniProt P22681); test: C-cbl LCK Ub TR-FRET assay (C-cbl Lck HTRF); type: biochemical
In short: (§1)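 Biotin-Cbl-b (16 nM) or biotin-c-Cbl (12 nM) at 2× preincubated with compound 60 min, then His-LCK (120 nM), 1 mM ATP and MgCl2 (2× mix) added for 90 min at RT. Buffer: HEPES pH 7.0, DTT. UBE2D2–HA-ubiquitin transfer read by TR-FRET (665/615 nm); IC50 versus no-LCK and DMSO controls, 10-point dilutions.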

Cbl-b = Cbl-b (Homo sapiens (Human), UniProt Q13191); test: Cbl-b LCK Ub TR-FRET assay (Cbl-b Lck HTRF); type: biochemical; settings: for (fold-selectivity): Cbl-b and C-Cbl selectivity, Lck HTRF; for IC50: read-out: Cbl-b Lck HTRF IC50
In short: as §1

Chain of Cbl-b (Q13191 40-426): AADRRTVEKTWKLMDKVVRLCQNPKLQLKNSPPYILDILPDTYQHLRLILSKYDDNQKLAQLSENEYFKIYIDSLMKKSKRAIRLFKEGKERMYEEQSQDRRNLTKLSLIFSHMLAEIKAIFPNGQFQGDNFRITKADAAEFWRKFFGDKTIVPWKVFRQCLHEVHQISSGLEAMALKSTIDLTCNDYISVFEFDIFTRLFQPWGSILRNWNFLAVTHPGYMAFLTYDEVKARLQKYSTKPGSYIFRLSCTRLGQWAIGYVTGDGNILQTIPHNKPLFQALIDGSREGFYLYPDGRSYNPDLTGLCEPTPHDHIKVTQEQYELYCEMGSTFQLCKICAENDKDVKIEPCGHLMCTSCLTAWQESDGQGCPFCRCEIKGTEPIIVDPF
Chain of c-Cbl (P22681 47-435): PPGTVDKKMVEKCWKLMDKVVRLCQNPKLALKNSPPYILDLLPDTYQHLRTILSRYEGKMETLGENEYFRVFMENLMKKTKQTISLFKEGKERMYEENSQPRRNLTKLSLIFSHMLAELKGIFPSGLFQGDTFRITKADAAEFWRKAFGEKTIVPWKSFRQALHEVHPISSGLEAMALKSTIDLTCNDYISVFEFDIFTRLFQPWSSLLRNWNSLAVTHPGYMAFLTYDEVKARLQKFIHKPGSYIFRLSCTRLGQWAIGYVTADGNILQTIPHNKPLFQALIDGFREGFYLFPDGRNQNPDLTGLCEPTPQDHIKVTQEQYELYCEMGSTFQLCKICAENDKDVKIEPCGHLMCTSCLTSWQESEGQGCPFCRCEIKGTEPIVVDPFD

Structure (SMILES) | IC50 (c-Cbl) [nM] | (fold-selectivity) (Cbl-b) | IC50 (Cbl-b) [nM]
Cn1cnnc1[C@H](F)[C@]1(c2cccc(NC(=O)c3cccc(C(F)(F)F)n3)c2)CCO1 [Compound 503, N-(3-((R)-2-((S)-fluoro(4-methyl-4H-1,2,4-triazol-3-yl)methyl)oxetan-2-yl)phenyl)-6-(trifluoromethyl)picolinamide] | 17000 | (0.85x) | 20000
Cn1cnnc1[C@@H](F)[C@]1(c2cccc(NC(=O)c3cccc(C(F)(F)F)n3)c2)CCO1 [Compound 504, N-(3-((R)-2-((R)-fluoro(4-methyl-4H-1,2,4-triazol-3-yl)methyl)oxetan-2-yl)phenyl)-6-(trifluoromethyl)picolinamide] | 8700 | (0.55x) | 16000
Cn1cnnc1CC1(c2cccc(NC(=O)c3cc(C(CC4CC4)N4CCC5(CC5)C4)cc(C(F)(F)F)n3)c2)COC1 (stereo not drawn) [Compound 505, 4-(2-cyclopropyl-1-(5-azaspiro[2.4]heptan-5-yl)ethyl)-N-(3-(3-((4-methyl-4H-1,2,4-triazol-3-yl)methyl)oxetan-3-yl)phenyl)-6-(trifluoromethyl)picolinamide] | 39 | (1.5x) | 26
Cn1cnnc1CC1(c2cccc(NC(=O)c3cc(CCO)cc(C(F)(F)F)n3)c2)COC1 [Compound 506, 4-(2-hydroxyethyl)-N-(3-(3-((4-methyl-4H-1,2,4-triazol-3-yl)methyl)oxetan-3-yl)phenyl)-6-(trifluoromethyl)picolinamide] | 160 | (1.1x) | 150
Cn1cnnc1CC1(c2cccc(NC(=O)c3cc(CC(N)=O)cc(C(F)(F)F)n3)c2)COC1 [Compound 507, 4-(2-amino-2-oxoethyl)-N-(3-(3-((4-methyl-4H-1,2,4-triazol-3-yl)methyl)oxetan-3-yl)phenyl)-6-(trifluoromethyl)picolinamide] | 89 | (0.89x) | 100
